Assay [1] concerns the target T1, DYRK1A (Homo sapiens, UniProt Q13627).
T1 construct: full-length human kinases from Carna Biosciences; purchased Carna Biosciences 04-130
The experiment in a line: Kinase TR-FRET assay, DYRK1A. The class given is biochemical. A general note: In TR-FRET formats the signal depends on donor and acceptor labels being close together.

The target in assay [2] is T2, His-TEV-DYRK1A Kinase domain (aa127-485) (Homo sapiens, UniProt Q13627).
T2 construct: His-TEV-DYRK1A Kinase domain (aa127-485); His (N); TEV cleavage site (N)
Description: Kinase ADP assay (ADP Hunter Plus). It counts as biochemical.

In assay [3] the target is T3, DYRK1B (Homo sapiens, UniProt Q9Y463).
T3 construct: full-length human kinases from Carna Biosciences; purchased Carna Biosciences 04-131
The experiment in a line: Kinase TR-FRET assay, DYRK1B. It counts as biochemical.

Assay [4] deals with T4, phospho-Ser520-DYRK1A (Homo sapiens, UniProt Q13627).
T4 construct: full-length, wild-type human DYRK1A (NM_001396) with an HA tag; expressed in transfected cells; host or cells: human U2-OS osteosarcoma cells, pcDNA3.1 plasmid
The experiment in a line: Cellular DYRK1A autophosphorylation assay in U2-OS cells. It counts as cell-based. The settings on record: 5 hours exposure, read-out: IC50 (μM) P-Ser520-Dyrk1A-Cell assay.

For assay [5], the target named is T5, CLK1 (Homo sapiens, UniProt P49759).
T5 construct: full-length human kinases from Carna Biosciences; purchased Carna Biosciences 04-126
Description: Kinase TR-FRET assay, CLK1. It counts as biochemical.

This is an account of results in patent publication US20180273538A1, “PYRROLO[2,3-d]PYRIMIDINE DERIVATIVES, A PROCESS FOR THEIR PREPARATION AND PHARMACEUTICAL COMPOSITIONS CONTAINING THEM” (LES LABORATOIRES SERVIER, priority 2015, published 2018).

T3 sequence (Q9Y463 whole entry): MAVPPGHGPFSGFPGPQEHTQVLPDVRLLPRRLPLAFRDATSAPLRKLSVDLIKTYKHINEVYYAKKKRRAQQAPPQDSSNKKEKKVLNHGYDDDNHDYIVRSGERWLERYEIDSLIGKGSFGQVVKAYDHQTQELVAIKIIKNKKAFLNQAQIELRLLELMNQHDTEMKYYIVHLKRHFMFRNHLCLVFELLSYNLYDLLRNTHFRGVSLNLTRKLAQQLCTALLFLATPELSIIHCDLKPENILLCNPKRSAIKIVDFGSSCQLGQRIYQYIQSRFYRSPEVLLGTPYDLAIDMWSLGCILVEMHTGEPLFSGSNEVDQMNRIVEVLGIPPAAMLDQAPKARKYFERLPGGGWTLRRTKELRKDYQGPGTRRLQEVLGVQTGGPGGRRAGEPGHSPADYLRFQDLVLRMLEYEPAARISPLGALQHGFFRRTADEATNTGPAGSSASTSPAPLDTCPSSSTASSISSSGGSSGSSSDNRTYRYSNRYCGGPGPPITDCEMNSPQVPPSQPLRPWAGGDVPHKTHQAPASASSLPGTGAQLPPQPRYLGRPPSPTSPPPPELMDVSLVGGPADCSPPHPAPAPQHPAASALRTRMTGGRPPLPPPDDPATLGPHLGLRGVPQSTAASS
T5 sequence (P49759 1-526 isoform P49759-3): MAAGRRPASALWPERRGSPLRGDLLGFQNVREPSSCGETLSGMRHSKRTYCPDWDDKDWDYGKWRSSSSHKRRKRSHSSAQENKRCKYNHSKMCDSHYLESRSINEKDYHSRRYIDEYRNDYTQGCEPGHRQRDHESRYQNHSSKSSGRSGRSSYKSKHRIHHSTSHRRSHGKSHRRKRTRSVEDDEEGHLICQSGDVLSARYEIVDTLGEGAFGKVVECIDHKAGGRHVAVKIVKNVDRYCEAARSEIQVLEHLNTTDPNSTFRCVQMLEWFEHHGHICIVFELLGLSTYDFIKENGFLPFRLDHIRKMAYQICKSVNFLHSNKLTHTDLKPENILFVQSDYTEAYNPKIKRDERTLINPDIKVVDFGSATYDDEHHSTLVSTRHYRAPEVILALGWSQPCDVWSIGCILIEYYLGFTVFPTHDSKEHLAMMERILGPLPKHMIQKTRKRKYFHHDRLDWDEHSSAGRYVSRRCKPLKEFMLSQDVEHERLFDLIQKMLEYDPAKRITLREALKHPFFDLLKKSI

A word on the IC50: it is the concentration that gives 50% inhibition. For `Cc1cc(-c2c[nH]c3nc(C)nc(OCc4ccsc4)c23)ccn1` [Example 5, 2-methyl-5-(2-methylpyridin-4-yl)-4-(thiophen-3-ylmethoxy)-7H-pyrrolo[2,3-d]pyrimidine], the values for the half-maximal inhibitory concentration (IC50) in assay [1], in assay [2] and in assay [3] were 0.0094 µM, 0.015 µM and 0.0005 µM, respectively.

With `Cc1nc(OCc2ccccc2)c2c(-c3ccncc3)c[nH]c2n1` [Example 11, 4-(benzyloxy)-2-methyl-5-(pyridin-4-yl)-7H-pyrrolo[2,3-d]pyrimidine], the half-maximal inhibitory concentration (IC50) in assay [1] is 0.0173 µM; in assay [2], 0.012 µM; in assay [3] it was 0.0132 µM.

In the case of `Cc1nc(OCC2CCCC2)c2c(-c3ccncc3)c[nH]c2n1` [Example 15, 4-(cyclopentylmethoxy)-2-methyl-5-(pyridin-4-yl)-7H-pyrrolo[2,3-d]pyrimidine], the values for the IC50 in assay [1], in assay [2] and in assay [3] were 0.0355 µM, 0.032 µM and 0.0143 µM, respectively.

For the compound `Cc1nc(OCc2ccc(C(C)C)cc2)c2c(-c3ccnc(N)c3)c[nH]c2n1` [Example 27, 4-{2-methyl-4-{(4-{propan-2-yl)benzyl]oxy}-7H-pyrrolo[2,3-d]pyrimidin-5-yl)pyridin-2-amine], the values for the half-maximal inhibitory concentration (IC50) in assay [1], in assay [2] and in assay [3] were 0.0444 µM, 0.04 µM and 0.0522 µM, respectively.

As to `Cc1nc(NCc2ccc(F)cc2)c2c(-c3ccnc(N)c3)c[nH]c2n1` [Example 54, 5-(2-aminopyridin-4-yl)-N-(4-fluorobenzyl)-2-methyl-7H-pyrrolo[2,3-d]pyrimidin-4-amine], the values for the half-maximal inhibitory concentration (IC50) in assay [1], in assay [4] and in assay [2] were 0.0129 µM, 0.511 µM and 0.032 µM, respectively.

Take `Cc1nc(NCc2cc(C)on2)c2c(-c3ccnc(N)c3)c[nH]c2n1` [Example 59, 5-(2-aminopyridin-4-yl)-2-methyl-N-[(5-methyl-1,2-oxazol-3-yl)methyl]-7H-pyrrolo[2,3-d]pyrimidin-4-amine]: the IC50 in assay [1] was 0.0102 µM; in assay [4], 0.259 µM; in assay [2] it was 0.042 µM; in assay [3], 0.0191 µM.

`Cc1nc(NCc2ncccc2C)c2c(-c3ccnc(N)c3)c[nH]c2n1` [Example 60, 5-(2-aminopyridin-4-yl)-2-methyl-N-[(3-methylpyridin-2-yl)methyl]-7H-pyrrolo[2,3-d]pyrimidin-4-amine]: the half-maximal inhibitory concentration (IC50) is 0.003 µM in assay [1], 0.0206 µM in assay [4] and 0.011 µM in assay [2].

Consider `Cc1nc(NCc2ccc(F)cc2F)c2c(-c3ccnc(N)c3)c[nH]c2n1` [Example 63, 5-(2-aminopyridin-4-yl)-N-(2,4-difluorobenzyl)-2-methyl-7H-pyrrolo[2,3-d]pyrimidin-4-amine], for which the IC50 was found to be 0.0107 µM in assay [1], 0.0408 µM in assay [4] and 0.014 µM in assay [2].

Take `Cc1nc(NCc2ccccc2C(F)(F)F)c2c(-c3ccnc(N)c3)c[nH]c2n1` [Example 64, 5-(2-aminopyridin-4-yl)-2-methyl-N-[2-(trifluoromethyl)benzyl]-7H-pyrrolo[2,3-d]pyrimidin-4-amine]: the half-inhibitory concentration (IC50) worked out at 0.0059 µM in assay [1], 0.234 µM in assay [4], 0.015 µM in assay [2] and 0.0093 µM in assay [3].

Take `Cc1nc(NCC2CC2)c2c(-c3ccnc(N)c3)c[nH]c2n1` [Example 65, 5-(2-aminopyridin-4-yl)-N-(cyclopropymethyl)-2-methyl-7H-pyrrolo[2,3-d]pyrimidin-4-amine]: the IC50 in assay [1] was found to be 0.0709 µM; in assay [4], 0.898 µM; in assay [2] it was 0.069 µM.

Regarding `Cc1nc(NCc2ncccc2F)c2c(-c3ccnc(N)c3)c[nH]c2n1` [Example 71, 5-(2-aminopyridin-4-yl)-N-[(3-fluoropyridin-2-yl)methyl]-2-methyl-7H-pyrrolo[2,3-d]pyrimidin-4-amine], the IC50 in assay [5] was 0.0237 µM; in assay [3], 0.0074 µM.

As to `Cc1nc(NCc2cccc(F)c2F)c2c(-c3ccnc(N)c3)c[nH]c2n1` [Example 74, 5-(2-aminopyridin-4-yl)-N-(2,3-difluorobenzyl)-2-methyl-7H-pyrrolo[2,3-d]pyrimidin-4-amine], the IC50 in assay [1] was found to be 0.0012 µM; in assay [4] it was 0.111 µM; in assay [5], 0.0184 µM; in assay [2] it was 0.014 µM.

For the compound `Cc1nc(N[C@@H]2CCc3ccccc32)c2c(-c3ccnc(N)c3)c[nH]c2n1` [Example 76, 5-(2-aminopyridin-4-yl)-N-[(1R)-2,3-dihydro-1H-inden-1-yl]-2-methyl-7H-pyrrolo[2,3-d]pyrimidin-4-amine], the 50% inhibitory concentration (IC50) in assay [1] is 0.0063 µM; in assay [4], 0.0672 µM; in assay [2] it was 0.01 µM; in assay [3], 0.0005 µM.

For the compound `CCOc1ccccc1CNc1nc(C)nc2[nH]cc(-c3ccnc(N)c3)c12` [Example 79, 5-(2-aminopyridin-4-yl)-N-(2-ethoxybenzyl)-2-methyl-7H-pyrrolo[2,3-d]pyrimidin-4-amine], the IC50 in assay [1] was found to be 0.0021 µM; in assay [4], 0.105 µM; in assay [2], 0.008 µM; in assay [3], 0.008 µM.

`COc1cccc(C(F)(F)F)c1CNc1nc(C)nc2[nH]cc(-c3ccnc(N)c3)c12` [Example 80, 5-(2-aminopyridin-4-yl)-N-[2-methoxy-6-(trifluoromethyl)benzyl]-2-methyl-7H-pyrrolo[2,3-d]pyrimidin-4-amine]: the IC50 is 0.0059 µM in assay [1], 0.0156 µM in assay [4], 0.004 µM in assay [2] and 0.0106 µM in assay [3].

As for `Cc1nc(NCc2cccc(Cl)c2Cl)c2c(-c3ccnc(N)c3)c[nH]c2n1` [Example 81, 5-(2-aminopyridin-4-yl)-N-(2,3-dichlorbenzyl)-2-methyl-7H-pyrrolo[2,3-d]pyrimidin-4-amine], the concentration for half-maximal inhibition (IC50) in assay [1] was 0.0085 µM; in assay [4], 0.166 µM; in assay [2], 0.014 µM; in assay [3] it was 0.0141 µM.

Turning to `Cc1nc(NC(C)c2c(F)cccc2F)c2c(-c3ccnc(N)c3)c[nH]c2n1` (stereo not shown) [Example 82, 5-(2-aminopyridin-4-yl)-N-[1-(2,6-difluorophenyl)ethyl]-2-methyl-7H-pyrrolo[2,3-d]pyrimidin-4-amine], the results for the IC50 in assay [1], in assay [2] and in assay [3] were 0.001 µM, 0.045 µM and 0.0199 µM, respectively.

As to `Cc1nc(N[C@@H]2C[C@H]3CC[C@@H]2C3)c2c(-c3ccnc(N)c3)c[nH]c2n1` [Example 83, 5-(2-aminopyridin-4-yl)-N-[(1R,2R,4S)-bicyclo[2.2.1]hept-2-yl]-2-methyl-7H-pyrrolo[2,3-d]pyrimidin-4-amine], the half-inhibitory concentration (IC50) in assay [1] is 0.0006 µM; in assay [2], 0.081 µM; in assay [3], 0.0404 µM.

As to `Cc1nc(NCc2c(C)noc2C)c2c(-c3ccnc(N)c3)c[nH]c2n1` [Example 95, 5-(2-aminopyridin-4-yl)-N-[(3,5-dimethyl-1,2-oxazol-4-yl)methyl]-2-methyl-7H-pyrrolo[2,3-d]pyrimidin-4-amine], the figures for the IC50 in assay [1], in assay [4] and in assay [2] were 0.0979 µM, 0.534 µM and 0.066 µM, respectively.

As to `COc1cccnc1CNc1nc(C)nc2[nH]cc(-c3ccnc(N)c3)c12` [Example 98, 5-(2-aminopyridin-4-yl)-N-[(3-methoxypyridin-2-yl)methyl]-2-methyl-7H-pyrrolo[2,3-d]pyrimidin-4-amine], the half-maximal inhibitory concentration (IC50) came out at 0.192 µM in assay [4], 0.0241 µM in assay [5] and 0.022 µM in assay [2].

Consider `COc1ccccc1[C@H](C)Nc1nc(C)nc2[nH]cc(-c3ccnc(N)c3)c12` [Example 106, 5-(2-aminopyridin-4-yl)-N-[(1S)-1-(2-methoxyphenyl)ethyl]-2-methyl-7H-pyrrolo[2,3-d]pyrimidin-4-amine], for which the IC50 in assay [4] is 0.177 µM; in assay [5] it was 0.0171 µM; in assay [2], 0.018 µM.

With `Cc1nc(N2CCc3ccccc3C2)c2c(-c3cc(N)nc(N)c3)c[nH]c2n1` [Example 114, 4-[4-(3,4-dihydroisoquinolin-2(1H)-yl)-2-methyl-7H-pyrrolo[2,3-d]pyrimidin-5-yl]pyridine-2,6-diamine], the results for the IC50 in assay [4], in assay [5] and in assay [2] were 0.006 µM, 0.0162 µM and 0.009 µM, respectively.

As for `COc1cccc(F)c1CNc1nc(C)nc2[nH]cc(-c3cc(N)nc(N)c3)c12` [Example 116, 4-{4-[(2-fluoro-6-methoxybenzyl)amino]-2-methyl-7H-pyrrolo[2,3-d]pyrimidin-5-yl}pyridine-2,6-diamine], the IC50 was found to be 0.0009 µM in assay [4], 0.0136 µM in assay [5] and 0.005 µM in assay [2].

As to `Cc1nc(NCC(F)(F)c2ccccc2)c2c(-c3ccnc(N)c3)c[nH]c2n1` [Example 123, 5-(2-aminopyridin-4-yl)-N-(2,2-difluoro-2-phenylethyl)-2-methyl-7H-pyrrolo[2,3-d]pyrimidin-4-amine], the IC50 in assay [5] turned out to be 0.0615 µM; in assay [2], 0.071 µM.

Take `Cc1nc(-c2ccccc2)c2c(-c3ccnc(N)c3)c[nH]c2n1` [Example 163]: the IC50 came to 0.197 µM in assay [4], 0.104 µM in assay [5] and 0.026 µM in assay [2].

In the case of `Cc1nc(COc2c(F)cccc2F)c2c(-c3ccnc(N)c3)c[nH]c2n1` [Example 166], the IC50 in assay [4] stood at 0.118 µM; in assay [5] it was 0.248 µM; in assay [2], 0.025 µM.

`COc1cccc(-c2nc(C)nc3[nH]cc(-c4ccnc(N)c4)c23)c1` [Example 167]: the figures for the IC50 in assay [4], in assay [5] and in assay [2] were 0.0444 µM, 0.042 µM and 0.015 µM, respectively.

Consider `Cc1nc(-c2ccc3c(c2)OCO3)c2c(-c3ccnc(N)c3)c[nH]c2n1` [Example 179], for which the half-inhibitory concentration (IC50) was found to be 0.0425 µM in assay [5] and 0.0115 µM in assay [3].
